Test results from PMC12305494, “Discovery of PXR Antagonist MI891 and PXR Degrader MI1013 and Their Roles in Hepatic Gene Regulation” (Journal of Medicinal Chemistry, 2025).

Legend:
PXR = target: T1, PXR (Homo sapiens, UniProt O75469); assay: PXR-responsive CYP3A4 promoter luciferase reporter assay in HepG2, agonist mode; assay type: cell-based; design: expressed in transfected cells; host or cells: HepG2; settings: HepG2, at concentrations up to 10 μM
T1 sequence (O75469 1-434): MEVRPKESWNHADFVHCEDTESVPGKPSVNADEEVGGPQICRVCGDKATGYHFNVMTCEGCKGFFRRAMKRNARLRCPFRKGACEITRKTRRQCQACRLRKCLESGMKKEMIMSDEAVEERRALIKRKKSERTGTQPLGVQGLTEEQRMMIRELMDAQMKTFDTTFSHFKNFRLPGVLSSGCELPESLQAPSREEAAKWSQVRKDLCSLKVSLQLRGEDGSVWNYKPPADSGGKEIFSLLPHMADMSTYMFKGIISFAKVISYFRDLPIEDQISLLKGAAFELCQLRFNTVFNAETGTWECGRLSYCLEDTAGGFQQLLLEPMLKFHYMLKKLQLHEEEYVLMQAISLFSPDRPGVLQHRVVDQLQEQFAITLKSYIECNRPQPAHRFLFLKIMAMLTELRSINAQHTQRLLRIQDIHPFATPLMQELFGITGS
Method: (§1) Rhesus monkey, mouse, and rat PXR expression vectors (100 ng/well each) were also obtained from GenScript. […] Carlberg (University of Kuopio, Kuopio, Finland).
(§2) The cells were cultured in DMEM medium (Merck) supplemented with 10% fetal bovine serum.

[1] = tested on: primary human hepatocytes; assay: RT-qPCR gene expression in primary human hepatocytes; assay type: cell-based; settings: PHH, MI891 5 μM
Method: Cryopreserved human hepatocytes from three donors were purchased from BioIVT (Westbury, New York, USA). The characteristics of the donors were as follows: donor 1, donor 2, donor 3 - person. PHHs were seeded in PHH medium supplemented with 10% fetal bovine serum at a density of 350,000 cells per well of rat tail collagen type I-coated 24-well plates (catalog number 354408, Corning, New York, USA). Cultivation medium was replaced with serum-free PHH medium 2 h later. […] Rifampicin, SPA70, and dimethyl sulfoxide (DMSO) were all purchased from Sigma-Aldrich (St. Louis, Missouri, USA, now part of Merck).
RT-qPCR was utilized to investigate gene expression in HepaRG and PHH. Total RNA was extracted from these cells using the phenol–chloroform method. The concentration of the isolated RNA was then measured using a Nanodrop 1000 spectro-photometer (Thermo Fisher Scientific).
Following RNA isolation, reverse transcription was performed to convert RNA into complementary DNA (cDNA). This step was carried out using the High-capacity cDNA reverse transcription kit (Cat. No. 4374966, ThermoFisher Scientific). The resulting cDNA served as the template for subsequent qPCR reactions.
The qPCR reactions were conducted on the QuantStudio 6 Flex Real-Time PCR System (ThermoFisher Scientific, Waltham, Mas-sachusetts). For these reactions, TaqMan Universal master mix II (Cat. No. 4440047, ThermoFisher Scientific) and TaqMan assays (FAM) utilized in this study are detailed in the Supporting Information. To quantify gene expression, the cycle threshold (Ct) values of the target genes were normalized to the Ct values of reference genes HPRT1 or GAPDH (HepaRG) or TBP (PHH). The normalized values were then expressed as fold changes (2−ΔΔCt) relative to the DMSO control at the specified time points, with the control set as 1.

CAR3 variant = target: T2, CAR3 variant (Homo sapiens, UniProt Q14994, DEL233-236); assay: CAR3 variant luciferase reporter assay; assay type: cell-based; settings: at concentrations up to 10 μM
T2 construct: expressed in transfected cells
Method: as §1, §2

PXR-eGFP = target: T3, PXR-eGFP (Homo sapiens, UniProt O75469); assay: Microscale thermophoresis (MST); assay type: binding; settings: COS-1 cell lysate expressing PXR-eGFP
T3 construct: expressed in transfected cells; host or cells: COS-1 (lysate used)
Method: Microscale Thermophoresis (MST) experiments were conducted using the Monolith NT.115 (201810-BR-N006) (Blue/Red) instrument from NanoTemper Technologies GmbH, Germany. Cell lysates from COS-1 cells expressing PXR-eGFP served as the source of fluorescently labeled PXR, allowing the study of proteins in near-native conditions. COS-1 cells were transfected with 1000 ng of GFP-fused PXR (PXR-eGFP) using Lipofectamine 3000 and lysed 48 h post-transfection with RIPA buffer. To assess MI891 binding to PXR, cell lysates were diluted 2x with MST buffer (10 mM Na-phosphate buffer, pH 7.4, 1 mM MgCl2, 3 mM KCl, 150 mM NaCl, 0.05% Tween-20) to achieve optimal fluorescence levels. A titration series of MI891 (0–30 μM) was incubated with the diluted cell lysates. Measurements were taken in premium-coated capillaries (NanoTemper Technologies GmbH, MO-K025) using an LED source (Blue LED: Ex: 470(±10)/Em: 520(±10) nm) with an excitation wavelength of 470 nm and a 50% maximum stimulation time (MST). The excitation power was […]. Binding affinity was evaluated using the Hill model, with each data point representing mean fraction bound values from three independent experiments. The bound fraction of PXR-eGFP was determined, and fitting was performed using the Hill model method in MO Affinity Analysis v2.3 software (NanoTemper Technologies). […]

T2 sequence (Q14994 with tags, fused parts or gaps isoform Q14994-8 DEL233-236): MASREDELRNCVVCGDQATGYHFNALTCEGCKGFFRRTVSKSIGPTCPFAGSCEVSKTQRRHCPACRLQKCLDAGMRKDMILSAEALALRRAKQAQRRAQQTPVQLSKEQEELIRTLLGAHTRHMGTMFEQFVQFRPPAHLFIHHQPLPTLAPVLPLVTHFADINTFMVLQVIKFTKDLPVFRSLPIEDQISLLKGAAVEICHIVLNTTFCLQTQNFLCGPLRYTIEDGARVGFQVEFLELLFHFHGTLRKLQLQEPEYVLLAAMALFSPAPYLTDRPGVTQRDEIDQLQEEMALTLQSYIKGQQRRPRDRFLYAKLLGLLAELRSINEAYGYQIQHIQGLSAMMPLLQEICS
T2 sequence (P19793 whole entry partner): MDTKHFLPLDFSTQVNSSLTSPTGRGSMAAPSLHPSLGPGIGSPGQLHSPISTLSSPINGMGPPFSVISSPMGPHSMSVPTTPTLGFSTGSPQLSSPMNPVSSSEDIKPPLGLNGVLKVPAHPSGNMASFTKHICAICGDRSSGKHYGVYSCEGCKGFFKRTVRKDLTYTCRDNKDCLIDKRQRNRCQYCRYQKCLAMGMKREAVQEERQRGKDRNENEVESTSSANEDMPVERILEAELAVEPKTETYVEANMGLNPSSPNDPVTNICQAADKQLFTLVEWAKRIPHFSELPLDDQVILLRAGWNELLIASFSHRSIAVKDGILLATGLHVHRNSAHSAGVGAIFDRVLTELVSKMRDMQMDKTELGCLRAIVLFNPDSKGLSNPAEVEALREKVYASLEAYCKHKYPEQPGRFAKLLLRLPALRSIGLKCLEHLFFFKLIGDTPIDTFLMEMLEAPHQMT

Molecule	PXR agonistic activity (PXR)	CYP7A1, HMGCS2, PCK1 and MKI67 mRNA ([1]; in the presence and absence of rifampicin)	CYP2B6 mRNA ([1]; all donors)	CYP3A4 mRNA expression ([1]; three donors, rifampicin 10 μM, 48 h)	activation of CAR3 variant (CAR3 variant)	Kd (PXR-eGFP)
N-(4-((1-(2,5-dimethoxyphenyl)-5-methyl-1H-1,2,3-triazol-4-yl)sulfonyl)phenyl)-3-(2-(2-(2-(4-(((2-(2,6-dioxopiperidin-3-yl)-1,3-dioxoisoindolin-4-yl)amino)methyl)-1H-1,2,3-triazol-1-yl)ethoxy)ethoxy)ethoxy)propenamide [Compound 36]	did not exhibit agonistic activity	–	–	–	–	–
NC(=O)c1cc(Cn2cc(-c3c(-c4ccc(Cl)cc4)nc4c(F)cc(F)cn34)nn2)ccc1Cl [Compound 11, 2-Chloro-5-((4-(2-(4-chlorophenyl)-6,8-difluoroimidazo[1,2-a]pyridin-3-yl)-1H-1,2,3-triazol-1-yl)methyl)-benzamide]	–	significant downregulation	may slightly upregulate	suppressed the expression of CYP3A4 mRNA and attenuated its induction by rifampicin	no significant activation	1700 nM
